US8344140B2, “18F-labelled folates” (Merck Eprova AG, priority 2007, dated 2013)

Experiments:
[1] = in vitro plasma stability study, human plasma; assay type: in vitro ADME; conditions: 37° C.
Description: (§1) The ^18F-click folate was employed in in vitro plasma stability studies and in metabolite studies using liver microsomes.
(§2) ^18F-click folate was incubated with both human and murine plasma at 37° C. in a shaking water bath. Aliquots were taken at different time points and analysed by HPLC.

[2] = in vitro plasma stability study, murine plasma; assay type: in vitro ADME; conditions: 37° C.
Description: as §1, §2

[3] = metabolite study using human liver microsomes; assay type: in vitro ADME; conditions: 37° C., aliquots at 0, 5, 15 and 30 min
Description: as §1
(§3) Metabolites studies using human and murine liver microsomes were carried out at 37° C. over a time span of 0-30 min. Aliquots were taken at 0, 5, 15 and 30 min.

[4] = metabolite study using murine liver microsomes; assay type: in vitro ADME; conditions: 37° C., aliquots at 0, 5, 15 and 30 min
Description: as §1, §3

[5] = test system: folate receptor-positive KB tumors; test: ex vivo biodistribution in nude mice bearing KB xenografts tumors; conditions: ~2 MBq injected, 45 min post injection
Description: ^18F-click folate was applied in ex vivo biodistribution studies using eight nude mice bearing KB xenografts tumors. ˜2 MBq of the radiotracer were injected into each animal. In a blockade group (4 animals) […] natural folic acid was injected 10 min prior to the radiotracer. The animals were scarified 45 min post injection. […] Furthermore a specific uptake with 78% specific blockade was also found in the kidneys, which are known to express the folate receptor.

[6] = test system: folate receptor-positive KB tumors; test: in vivo PET imaging in nude mice bearing KB xenografts tumors; conditions: ~11 MBq injected; PET scans 15 min to 45 min post injection
Description: In vivo PET imaging using the ^18F-click folate was performed in nude mice bearing KB xenografts tumors. ˜11 MBq of the radiotracer were injected into each animal. In the blockade group 200 μg natural folic acid was injected 10 min prior to the radiotracer. The PET scans were acquired from 15 min to 45 min post injection.
The KB tumors could be imaged by PET using ^18F-click folate.
PET imaging using [^18F]FDG was performed with the same animals four days after the ^18F-click folate studies. ˜9 MBq of [^18F]FDG were injected into each animal. The PET scans were acquired from 30 min to 60 min post injection. […] Although [^18F]FDG is the most commonly used radiotracer in PET tumor imaging, it is known that [^18F]FDG is not suitable for the imaging of KB xenografts tumors (Bettio et al, J. Nucl. Med. […]; 47: 1153-60).
FIG. 4 show the PET images using ^18F-click folate (left hand side) in comparison to PET images using [^18F]FDG (right hand side), the arrows indicate the position of the KB xenografts tumors.

- stability in plasma ([1]; HPLC analysis, 0-120 min): high stability
- stability in plasma ([2]; HPLC analysis, 0-120 min): high stability
- unspecific uptake in gallbladder, intestine and feces ([5]; points to hepatobiliary elimination): High unspecific uptake
- accumulation of radioactivity in the abdominal region (gallbladder, intestines) [6]: high accumulation
SMILES: Nc1nc2ncc(CNc3ccc(C(=O)NC(CCC(=O)NCCCCn4cc(CCCC[18F])nn4)C(=O)O)cc3)nc2c(=O)[nH]1 (centres unmarked) [^18F-click folate, γ-(4-(4-(4-[^18F]fluorobutyl)-1,2,3-triazol-1-yl)butyl) folic acid amide]
- defluorination or other radioactive degradation products in plasma ([1]; over a period of 0-120 min): No defluorination or other radioactive degradation products were detected
- defluorination or other radioactive degradation products in plasma ([2]; over a period of 0-120 min): No defluorination or other radioactive degradation products were detected
- radioactive metabolites or degradation in liver microsomes [3]: no radioactive metabolites or degradation
- radioactive metabolites or degradation in liver microsomes [4]: no radioactive metabolites or degradation
- specific blockade of radiotracer uptake in KB tumors ([5]; KB tumors, natural folic acid 10 min prior in blockade group): 94%
- specific blockade of radiotracer uptake in kidneys ([5]; kidneys, natural folic acid 10 min prior in blockade group): 78%
- tumor-to-background ratio [6]: low
